Experimental data published in US10471046B2, “Method for treating, preventing, or reducing the risk of skin infection” (Melinta Subsidiary Corp., priority 2014, dated 2019).
≈ marks a conversion by molar mass, not a printed value.

Test system: S. aureus
Assay: Minimum inhibitory concentrations (MICs) for S. aureus of exemplary compounds (Table 2)
Type: cell-based
Conditions: Staphylococcus aureus, minimum inhibitory concentrations for S. aureus; read-out: MICs
Method in brief: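 Growth of S. aureus in media with or without compound, by broth microdilution in microtiter trays following NCCLS M7-A5 guidelines. Values are MICs in μg/mL.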

| SMILES | MIC |
| --- | --- |
| CC(=O)NC[C@H]1CN(c2ccc(-c3ccc(CNCc4ccc(C)o4)cc3)c(F)c2)C(=O)O1 [Compound 4081, N-[3-(2-Fluoro-4′-{[(5-methyl-furan-2-ylmethyl)-amino]-methyl}-biphenyl-4-yl)-2-oxo-oxazolidin-5-(S)-ylmethyl]-acetamide] | 2 µg/mL (≈ 4.43 µM) |
| CC(=O)NC[C@H]1CN(c2ccc(-c3ccc(CNCc4c[nH]c5ccccc45)cc3)c(F)c2)C(=O)O1 [Compound 4083, N-[3-(2-Fluoro-4′-{[(1H-indol-3-ylmethyl)-amino]-methyl}-biphenyl-4-yl)-2-oxo-oxazolidin-5-(S)-ylmethyl]-acetamide] | 2 µg/mL (≈ 4.11 µM) |
| CC(=O)NC[C@H]1CN(c2ccc(-c3ccc(CNCc4ccc(-c5ccccc5)s4)cc3)c(F)c2)C(=O)O1 [Compound 4084, N-[3-(2-Fluoro-4′-{[(5-phenyl-thiophen-2-ylmethyl)-amino]-methyl}-biphenyl-4-yl)-2-oxo-oxazolidin-5-(S)-ylmethyl]-acetamide] | 128 µg/mL (≈ 242 µM) |
| CC(=O)NC[C@H]1CN(c2ccc(-c3ccc(CNCc4cc(C)c(C)o4)cc3)c(F)c2)C(=O)O1 [Compound 4085, N-[3-(4′-{[(4,5-Dimethyl-furan-2-ylmethyl)-amino]-methyl}-2-fluoro-biphenyl-4-yl)-2-oxo-oxazolidin-5-(S)-ylmethyl]-acetamide] | 4 µg/mL (≈ 8.59 µM) |
| CC(=O)NC[C@H]1CN(c2ccc(-c3ccc(CNCCc4ccccn4)cc3)c(F)c2)C(=O)O1 [Compound 4087, N-(3-{2-Fluoro-4′-[(2-pyridin-2-yl-ethylamino)-methyl]-biphenyl-4-yl}-2-oxo-oxazolidin-5-(S)-ylmethyl)-acetamide] | 4 µg/mL (≈ 8.65 µM) |
| CC(=O)NC[C@H]1CN(c2ccc(-c3ccc(CNCc4ccco4)c(F)c3F)c(F)c2)C(=O)O1 [Compound 4088, N-[2-Oxo-3-(2,2′,3′-trifluoro-4′-{[(furan-2-ylmethyl)-amino]-methyl}-biphenyl-4-yl)-oxazolidin-5-(S)-ylmethyl]-acetamide] | 2 µg/mL (≈ 4.22 µM) |
| CC(=O)NC[C@H]1CN(c2ccc(-c3ccc(CNCc4ccncc4)c(F)c3F)c(F)c2)C(=O)O1 [Compound 4089, N-[2-Oxo-3-(2,2′,3′-trifluoro-4′-{[(pyridin-4-ylmethyl)-amino]-methyl}-biphenyl-4-yl)-oxazolidin-5-(S)-ylmethyl]-acetamide] | 2 µg/mL (≈ 4.13 µM) |
| CC(=O)NC[C@H]1CN(c2ccc(-c3ccc(CNCc4nc5ccccc5[nH]4)cc3)c(F)c2)C(=O)O1 [Compound 4092, N-[3-(4′-{[(1H-Benzoimidazol-2-ylmethyl)-amino]-methyl}-2-fluoro-biphenyl-4-yl)-2-oxo-oxazolidin-5-(S)-ylmethyl]-acetamide] | 4 µg/mL (≈ 8.2 µM) |
| CC(=O)NC[C@H]1CN(c2ccc(-c3ccc(CNCc4ccc(S(N)(=O)=O)cc4)cc3)c(F)c2)C(=O)O1 [Compound 4093, N-(3-{2-Fluoro-4′-[(4-sulfamoyl-benzylamino)-methyl]-biphenyl-4-yl}-2-oxo-oxazolidin-5-(S)-ylmethyl)-acetamide] | 8 µg/mL (≈ 15.2 µM) |
| CC(=O)NC[C@H]1CN(c2ccc(-c3ccc(CNCCc4ccc(S(N)(=O)=O)cc4)cc3)c(F)c2)C(=O)O1 [Compound 4094, N-[3-(2-Fluoro-4′-{[2-(4-sulfamoyl-phenyl)-ethylamino]-methyl}-biphenyl-4-yl)-2-oxo-oxazolidin-5-(S)-ylmethyl]-acetamide] | 2 µg/mL (≈ 3.7 µM) |
| CC(=O)NC[C@H]1CN(c2ccc(-c3ccc(CNCCc4scnc4C)cc3)c(F)c2)C(=O)O1 [Compound 4096, N-[3-(2-Fluoro-4′-{[2-(4-methyl-thiazol-5-yl)-ethylamino]-methyl}-biphenyl-4-yl)-2-oxo-oxazolidin-5-(S)-ylmethyl]-acetamide] | 4 µg/mL (≈ 8.29 µM) |
| COc1ccc2[nH]cc(CNCc3ccc(-c4ccc(N5C[C@H](CNC(C)=O)OC5=O)cc4F)cc3)c2c1 [Compound 4098, N-[3-(2-Fluoro-4′-{[(5-methoxy-1H-indol-3-ylmethyl)-amino]-methyl}-biphenyl-4-yl)-2-oxo-oxazolidin-5-(S)-ylmethyl]-acetamide] | 2 µg/mL (≈ 3.87 µM) |
| CC(=O)NC[C@H]1CN(c2ccc(-c3ccc(CNCc4sccc4C)cc3)c(F)c2)C(=O)O1 [Compound 4099, N-[3-(2-Fluoro-4′-{[(3-methyl-thiophen-2-ylmethyl)-amino]-methyl}-biphenyl-4-yl)-2-oxo-oxazolidin-5-(S)-ylmethyl]-acetamide] | 4 µg/mL (≈ 8.55 µM) |
| CC(=O)NC[C@H]1CN(c2ccc(-c3ccc(CNCc4cccn4S(=O)(=O)c4ccccc4)cc3)c(F)c2)C(=O)O1 [Compound 4100, N-[3-(4′-{[(1-Benzenesulfonyl-1H-pyrrol-2-ylmethyl)-amino]-methyl}-2-fluoro-biphenyl-4-yl)-2-oxo-oxazolidin-5-(S)-ylmethyl]-acetamide] | 4 µg/mL (≈ 6.94 µM) |
| CC(=O)NC[C@H]1CN(c2ccc(-c3ccc(CNCc4c[nH]c(=O)[nH]c4=O)cc3)c(F)c2)C(=O)O1 [Compound 4101, N-[3-(4′-{[(2,4-Dioxo-1,2,3,4-tetrahydro-pyrimidin-5-ylmethyl)-amino]-methyl}-2-fluoro-biphenyl-4-yl)-2-oxo-oxazolidin-5-(S)-ylmethyl]-acetamide] | 1 µg/mL (≈ 2.08 µM) |
| CC(=O)NC[C@H]1CN(c2ccc(-c3ccc(CNCc4cc(C)oc4C)cc3)c(F)c2)C(=O)O1 [Compound 4103, N-[3-(4′-{[(2,5-Dimethyl-furan-3-ylmethyl)-amino]-methyl}-2-fluoro-biphenyl-4-yl)-2-oxo-oxazolidin-5-(S)-ylmethyl]-acetamide] | 8 µg/mL (≈ 17.2 µM) |
| CC(=O)NC[C@H]1CC(c2ccc(-c3ccc(CNC(=O)c4ccccc4C(=O)O)cc3)cc2)=NO1 [Compound 4106, N-{4′-[5-(R)-(Acetylamino-methyl)-4,5-dihydro-isoxazol-3-yl]-biphenyl-4-ylmethyl}-phthalamic acid] | 128 µg/mL (≈ 271 µM) |

The remaining lines, values ahead:

| MIC | SMILES |
| --- | --- |
| 32 µg/mL (≈ 70.9 µM) | CC(=O)NC[C@H]1CN(c2ccc(-c3ccc(CNCc4[nH]cnc4C)cc3)c(F)c2)C(=O)O1 [Compound 4082, N-[3-(2-Fluoro-4′-{[(5-methyl-3H-imidazol-4-ylmethyl)-amino]-methyl}-biphenyl-4-yl)-2-oxo-oxazolidin-5-(S)-ylmethyl]-acetamide] |
| 4 µg/mL (≈ 8.82 µM) | CC(=O)NC[C@H]1CN(c2ccc(-c3ccc(CNCc4ccsc4)cc3)c(F)c2)C(=O)O1 [Compound 4086, N-[3-(2-Fluoro-4′-{[(thiophen-3-ylmethyl)-amino]-methyl}-biphenyl-4-yl)-2-oxo-oxazolidin-5-(S)-ylmethyl]-acetamide] |
| 4 µg/mL (≈ 8.26 µM) | CC(=O)NC[C@H]1CN(c2ccc(-c3ccc(CNCc4ccccn4)c(F)c3F)c(F)c2)C(=O)O1 [Compound 4090, N-[2-Oxo-3-(2,2′,3′-trifluoro-4′-{[(pyridin-2-ylmethyl)-amino]-methyl}-biphenyl-4-yl)-oxazolidin-5-(S)-ylmethyl]-acetamide] |
| 8 µg/mL (≈ 18.3 µM) | CC(=O)NC[C@H]1CN(c2ccc(-c3ccc(CNCc4ncc[nH]4)cc3)c(F)c2)C(=O)O1 [Compound 4091, N-[3-(2-Fluoro-4′-{[(1H-imidazol-2-ylmethyl)-amino]-methyl}-biphenyl-4-yl)-2-oxo-oxazolidin-5-(S)-ylmethyl]-acetamide] |
| 4 µg/mL (≈ 7.87 µM) | CC(=O)NC[C@H]1CN(c2ccc(-c3ccc(CNCc4c(CO)cnc(C)c4O)cc3)c(F)c2)C(=O)O1 [Compound 4095, N-[3-(2-Fluoro-4′-{[(3-hydroxy-5-hydroxymethyl-2-methyl-pyridin-4-ylmethyl)-amino]-methyl}-biphenyl-4-yl)-2-oxo-oxazolidin-5-(S)-ylmethyl]-acetamide] |
| 16 µg/mL (≈ 34.7 µM) | CC(=O)NC[C@H]1CN(c2ccc(-c3ccc(C(=N)NCc4ccccn4)cc3)c(F)c2)C(=O)O1 [Compound 4097, N-{3-[2-Fluoro-4′-(N-pyridin-2-ylmethyl-carbamimidoyl)-biphenyl-4-yl]-2-oxo-oxazolidin-5-(S)-ylmethyl}-acetamide] |
| 2 µg/mL (≈ 4.32 µM) | CC(=O)NC[C@H]1CN(c2ccc(-c3ccc(C(=O)NCc4ccncc4)cc3)c(F)c2)C(=O)O1 [Compound 4102, 4′-[5-(S)-(Acetylamino-methyl)-2-oxo-oxazolidin-3-yl]-2′-fluoro-biphenyl-4-carboxylic acid (pyridin-4-ylmethyl)-amide] |
| 0.25 µg/mL (≈ 0.473 µM) | CC(=O)NC[C@H]1CN(c2ccc(-c3ccc(CNCc4c(-c5ccccc5)noc4C)cc3)c(F)c2)C(=O)O1 [Compound 4104, N-[3-(2-Fluoro-4′-{[(5-methyl-3-phenyl-isoxazol-4-ylmethyl)-amino]-methyl}-biphenyl-4-yl)-2-oxo-oxazolidin-5-(S)-ylmethyl]-acetamide] |
| 0.5 µg/mL (≈ 0.962 µM) | CC(=O)NC[C@H]1CN(c2ccc(-c3ccc(CNCc4cc(C)oc4C(F)(F)F)cc3)c(F)c2)C(=O)O1 [Compound 4105, N-[3-(2-Fluoro-4′-{[(5-methyl-2-trifluoromethyl-furan-3-ylmethyl)-amino]-methyl}-biphenyl-4-yl)-2-oxo-oxazolidin-5-(S)-ylmethyl]-acetamide] |
| 128 µg/mL (≈ 271 µM) | CC(=O)NC[C@H]1CC(c2ccc(-c3ccc(CNC(=O)c4ccccc4C(=O)O)cc3)nc2)=NO1 [Compound 4107, N-(4-{5-[5-(R)-(Acetylamino-methyl)-4,5-(S)-dihydro-isoxazol-3-yl]-pyridin-2-yl}-benzyl)-phthalamic acid] |
| 4 µg/mL (≈ 8.29 µM) | CC(=O)NC[C@H]1CN(c2ccc(-c3ccc(CNCc4sc(C)nc4C)cc3)c(F)c2)C(=O)O1 [Compound 4108, N-[3-(4′-{[(2,4-Dimethyl-thiazol-5-ylmethyl)-amino]-methyl}-2-fluoro-biphenyl-4-yl)-2-oxo-oxazolidin-5-(S)-ylmethyl]-acetamide] |
| 1 µg/mL (≈ 2.14 µM) | CC(=O)NC[C@H]1CN(c2ccc(-c3ccc(CNCc4c(C)noc4C)cc3)c(F)c2)C(=O)O1 [Compound 4109, N-[3-(4′-{[(3,5-Dimethyl-isoxazol-4-ylmethyl)-amino]-methyl}-2-fluoro-biphenyl-4-yl)-2-oxo-oxazolidin-5-(S)-ylmethyl]-acetamide] |
| 0.25 µg/mL (≈ 0.541 µM) | CC(=O)NC[C@H]1CN(c2ccc(-c3ccc(C(=O)NCc4ccccn4)cc3)c(F)c2)C(=O)O1 [Compound 4110, 4′-[5-(S)-(Acetylamino-methyl)-2-oxo-oxazolidin-3-yl]-2′-fluoro-biphenyl-4-carboxylic acid (pyridin-2-ylmethyl)-amide] |
